In ChEMBL document CHEMBL1782021, “Synthesis of 2-aziridinyl phosphonates by modified Gabriel-Cromwell reaction and their antibacterial activities” (2011):

Legend:
Type in all cases: functional
Bacillus subtilis = assay: Antibacterial activity against Bacillus subtilis assessed as diameter of zone of inhibition at 10 ug/disk after 24 hrs by disc diffusion assay; details: read-out: DIZ
Kocuria = assay: Antibacterial activity against Kocuria sp. isolate Fs24 at 10 ug/disk after 24 hrs by disc diffusion assay; details: isolate Fs24, 24 h, read-out: DIZ
Brevundimonas = assay: Antibacterial activity against Brevundimonas sp. isolate Fs30 at 10 ug/disk after 24 hrs by disc diffusion assay; details: isolate Fs30, 24 h, read-out: DIZ
Escherichia coli = assay: Antibacterial activity against Escherichia coli DH5[alpha] at 10 ug/disk after 24 hrs by disc diffusion assay; details: read-out: DIZ
Gordonia sp. = assay: Antibacterial activity against Gordonia sp. isolate Fs48 at 10 ug/disk after 24 hrs by disc diffusion assay; details: Gordonia sp. (in: high G+C Gram-positive bacteria), isolate Fs48, 24 h; read-out: DIZ

Row | Structure (SMILES) | zone of inhibition at 10 µg/disc (Bacillus subtilis) | zone of inhibition at 10 µg/disc (Kocuria) | zone of inhibition at 10 µg/disc (Brevundimonas) | zone of inhibition at 10 µg/disc (Escherichia coli) | zone of inhibition at 10 µg/disc (Gordonia sp.)
1 | CC1(C)S[C@@H]2[C@H](NC(=O)[C@H](N)c3ccccc3)C(=O)N2[C@H]1C(=O)O [AMPICILLIN] | 17.3 mm | 47.7 mm | 10.7 mm | 16.7 mm | 
2 | CN[C@@H]1[C@H](O[C@H]2[C@H](O[C@H]3[C@H](O)[C@@H](O)[C@H](N=C(N)N)[C@@H](O)[C@@H]3N=C(N)N)O[C@@H](C)[C@]2(O)C=O)O[C@@H](CO)[C@H](O)[C@H]1O [STREPTOMYCIN] | 14 mm | 26 mm | 29.3 mm | 19.7 mm | 29 mm
